The results in this text go back to patent publication US9844554B2 (Neurogastrx, Inc., priority 2014, dated 2017).

For data set [1], the target named is α1. As to the kind of experiment: Radioligand binding affinity, α1.
Data set [2] deals with 5HT2. Briefly: Radioligand binding affinity, 5HT2.
The target in data set [3] is hERG channel (Homo sapiens, UniProt Q12809). As to the kind of experiment: hERG voltage clamp assay in hERG-expressing cultured cells. The following applies: approximate, from voltage clamp data, read-out: concentration necessary to inhibit 50% of the tail currents mediated by hERG channels. In kind it is cell-based.
The subject of data set [4] is gastric motility in canines. As to the kind of experiment: Antral manometry (gastric motility) in canines. In kind it is in vivo, canine (hound dogs). On the procedure: Two healthy female hound dogs (24-28 kg) were involved in this study. Animals were fed an ad libitum chow diet (LabDiet®). After an overnight fast, the dogs were anesthetized with Pentothal (sodium thiopental, 11 mg/kg IV; Abbott Laboratories, North Chicago, Ill.) and maintained on 2-4% isoflurane (Abbott Laboratories) in oxygen (1 L/min) carrier gases delivered from a ventilator after endotracheal intubation. A cannula was placed in the jejunum 20 cm distal to the pylorus for the assessment of antral motility. Dogs were allowed to recover in their individual cages for 2 weeks. All experiments were performed after the dogs were completely recovered from the surgical procedure. The study was performed according to the National Institutes of Health Guidelines on the use of laboratory animals and approved by the Animal Care and Use Committee of the University of Texas Medical Branch at Galveston, Tex. To investigate the effect of the drugs on antral manometry, the study of each drug dose was done on three randomized sessions on separate days following the consumption of one can of solid dog food: 1) a Control session: In which animals received the vehicle only; 2) Dose I session: in which the lower dose of the drug was used; and 3) Dose II session: in which the higher dose of the drug was used (please refer to table for drug doses). Drug administration was performed according to Table 4, below. Antral manometry was performed as follows. Following an overnight fast, an intraluminal water-perfused manometry catheter was inserted into the antrum through the jejunal cannula. Antral manometry recording was initiated after the consumption of one can of solid food and continued for 3 hours. The catheter contained 3 manometric sensors at a 1 cm interval. Dogs were given 10 minutes of accommodation, prior to the start of the recording. For data analysis, motility index (MI), defined as the integrated area (area under curve—AUC) between baseline and contractions per hour, was calculated. For statistical analysis, the Student's t-test was used for assessment of individual differences between groups (high dose, low dose of each drug) compared to control—Microsoft®Excel 2002). All values are expressed as mean±SEM. Significance was considered when p value was ≦0.05.

Data set [5] relates to gastric emptying in Sprague-Dawley rats. Briefly: Solid gastric emptying in rodents. In kind it is in vivo, rat. On the procedure:
The animals received a standard laboratory rat chow and tap water ad libitum. The rats were around 400 g at 14 weeks age when used in gastric emptying study. Drugs: S-Carbidopa was purchased from Sigma (#: C1335). Stock solution of S-Carbidopa was prepared at 5 mg/ml using DMSO as solvent. 80 μl stock solution was further diluted into 1 ml distilled water to make 0.4 mg/ml. The effect of S-Carbidopa (1 mg/kg) on solid gastric emptying was studied. Procedures: Male SD rats were involved in this study. Rats were fasted in cages with metal wired mesh for 24 hours with free access to water; S-carbidopa (1 mg/kg) was administered to the rats by oral gavage. Control rats were not administered S-carbidopa. 15 minutes following administration, rats were given access to 2 g of rat chow pellets for ten minutes. All rats completely ingested the chow within the 10 minute time frame. Rats were sacrificed by sodium pentobarbital (100 mg/kg) overdose 90 min after feeding. The stomach was surgically isolated and removed. Gastric contents were recovered from the stomach, air dried for 48 hours and then weighed. Solid gastric emptying was calculated according to the following formula: Gastric emptying (%)=[1−(dried gastric content in g)/2 g]×100. All values are expressed as mean±SEM.

The subject of data set [6] is cardiac action potentials in dogs. As to the kind of experiment: Canine cardiac action potentials by electrocardiography and telemetry. Format: in vivo, dog. To be noted: for QTc intervals: oral gavage, 1-6 hours post-dose, vs vehicle. From the text: Surgical Implantation of the Telemetry Device and ECG Leads. Anesthesia is introduced to dogs. Balanced gaseous anesthesia is used throughout the surgical procedure. Once anesthetized, animals are shaved and surgically scrubbed, encompassing surgical sites of the right inguinal area, chest and right lateral abdomen. Throughout the surgical procedure, animals are monitored for continuous assessment of vital signs. An incision is made along the right medial thigh and the femoral artery exposed by blunt dissection. Another incision is made in the lateral lumbar area cranial to the iliac crest for a tunneling needle to be passed subcutaneously from the incision on the medial thigh to the lumbar incision. A blood pressure catheter is passed through the needle from the lumbar incision and the needle removed. The femoral artery is ligated distally and incised to insert a catheter that is advanced until the tip resided in the femoral artery/abdominal aorta. The catheter is then secured by ligation. The incision in the lumbar area is enlarged and a subcutaneous pocket created in the left dorsal lumbar area to hold the transmitter body. The transmitter (e.g., Data Sciences International, St Paul, Minn., USA) is inserted into the subcutaneous pocket and secured body. Electrocardiography (ECG) leads are positioned. The incision is closed. Postoperative recovery lasts, e.g., about 2 weeks during which supplemental analgesics/antibiotics are administered as needed. Once the postoperative recovery period is complete, the animal is examined for study acceptability by the staff veterinarian and the implanted transmitter signal verified.
Study Design. […] ECGs, heart rate and arterial blood pressure data are recorded 1 hour prior to and then continuously for at least 6 hours following compound and/or vehicle administration. A blood sample for determination of compound plasma concentrations is collected from all subjects at approximately 6 h post-dose.
ECG Analysis. An ECG waveform morphology assessment for the entire monitoring period is completed for each dog by a safety pharmacologist or veterinarian cardiologist. Standard ECG intervals (PR, RR, QRS and QT) are automatically measured by the data acquisition system and reported as, e.g., 10 min averages. The signals are collected with Data Sciences International Systems hardware. PR and QT manual overreads are conducted as appropriate. The manual measurements are completed from 50 mm s^−1 tracings at 30 min intervals. A mean of the three waveforms per time point are reported. QT intervals are corrected for heart rate (QTc) values by, e.g., using the formula by Funck-Bretano and Jaillon (1993).
Statistical Analysis. […] Dose-level averages (and accompanying standard deviation (s.d.) of these baseline-adjusted 10 min averages are calculated across study animals. ANOVA (e.g., repeated measures ANOVA) are applied to these baseline-adjusted averages. Pairwise t-tests are applied within the ANOVA to identify the presence of significant differences of the dose levels relative to vehicle. These t-tests are performed at a 0.05/2=0.025 significance level, so that the overall error rate across the comparisons in a given interval are not higher than 0.05. ECG interval data (reported at 30 min intervals) are analyzed using, e.g., repeated-measures ANOVA techniques similar to the systemic blood pressure and heart rate data described above.

Data set [7] deals with D3 (Homo sapiens, UniProt P35462). As to the kind of experiment: Radioligand binding affinity, D3.
Sequence of D3 (P35462 whole entry): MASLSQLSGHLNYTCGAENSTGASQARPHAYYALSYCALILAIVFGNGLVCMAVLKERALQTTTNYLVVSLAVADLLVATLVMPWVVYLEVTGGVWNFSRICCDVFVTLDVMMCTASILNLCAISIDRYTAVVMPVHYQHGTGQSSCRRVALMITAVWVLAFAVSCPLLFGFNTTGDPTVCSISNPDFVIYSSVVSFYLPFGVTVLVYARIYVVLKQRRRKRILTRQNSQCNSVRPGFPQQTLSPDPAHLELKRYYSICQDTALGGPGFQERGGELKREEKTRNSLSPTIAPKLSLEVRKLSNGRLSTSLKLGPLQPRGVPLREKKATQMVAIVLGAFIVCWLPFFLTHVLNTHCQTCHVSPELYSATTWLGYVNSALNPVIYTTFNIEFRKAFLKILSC

Sequence of hERG channel (Q12809 whole entry): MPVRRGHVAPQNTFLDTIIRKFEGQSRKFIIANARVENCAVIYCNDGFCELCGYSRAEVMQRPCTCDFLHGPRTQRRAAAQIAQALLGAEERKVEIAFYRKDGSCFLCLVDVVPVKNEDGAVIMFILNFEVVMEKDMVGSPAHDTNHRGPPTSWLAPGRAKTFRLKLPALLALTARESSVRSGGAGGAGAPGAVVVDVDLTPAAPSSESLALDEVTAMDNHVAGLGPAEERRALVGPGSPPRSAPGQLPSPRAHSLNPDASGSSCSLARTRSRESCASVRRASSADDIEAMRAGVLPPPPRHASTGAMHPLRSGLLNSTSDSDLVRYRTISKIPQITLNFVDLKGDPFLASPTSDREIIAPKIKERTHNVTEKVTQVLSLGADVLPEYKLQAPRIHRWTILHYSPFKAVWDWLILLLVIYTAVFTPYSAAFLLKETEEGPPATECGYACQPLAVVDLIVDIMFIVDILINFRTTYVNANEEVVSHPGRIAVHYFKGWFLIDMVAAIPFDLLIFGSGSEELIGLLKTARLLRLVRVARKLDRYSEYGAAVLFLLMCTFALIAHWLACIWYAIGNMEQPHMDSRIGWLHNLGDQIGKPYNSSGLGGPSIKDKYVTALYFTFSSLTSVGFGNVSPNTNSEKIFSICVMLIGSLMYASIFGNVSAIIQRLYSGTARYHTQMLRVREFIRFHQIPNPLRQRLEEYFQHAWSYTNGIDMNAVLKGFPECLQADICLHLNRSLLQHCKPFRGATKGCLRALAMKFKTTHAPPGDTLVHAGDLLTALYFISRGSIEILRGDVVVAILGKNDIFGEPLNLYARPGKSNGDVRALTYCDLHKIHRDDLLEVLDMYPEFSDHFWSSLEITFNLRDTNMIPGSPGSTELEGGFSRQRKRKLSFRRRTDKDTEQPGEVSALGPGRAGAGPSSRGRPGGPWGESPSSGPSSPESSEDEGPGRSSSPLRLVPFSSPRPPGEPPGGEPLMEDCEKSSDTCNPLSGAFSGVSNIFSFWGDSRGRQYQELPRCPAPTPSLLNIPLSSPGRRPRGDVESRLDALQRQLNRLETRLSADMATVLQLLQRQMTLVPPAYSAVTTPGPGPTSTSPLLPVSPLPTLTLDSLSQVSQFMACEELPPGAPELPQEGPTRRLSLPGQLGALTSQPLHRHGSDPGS

`CS(=O)(=O)c1ccc2c(c1)N(CCCN1CCC(C(N)=O)CC1)c1ccccc1S2` [Metopimazine, 1-[3-[2-(methylsulfonyl)-10H-phenothiazin-10-yl]propyl]-piperidine-4-carboxamide]: the Ki in data set [1] amounted to 1.9 nM; in data set [2], 15 nM. Besides, the IC50 in data set [3] was roughly 3000 nM. Further, the motor dysfunction entry in data set [4] is “no motor dysfunction was observed”. Also, the “overall increase in gastric emptying as compared to vehicle control” value in data set [5] (rats, pooling the 3 mg/kg and 10 mg/kg doses) is on record as “about 20%”. In data set [6], the QTc intervals result is reported as “no significant increases in QTc intervals”.

Regarding `CS(=O)(=O)c1ccc2c(c1)N(CCCN1CCC(C(=O)O)CC1)c1ccccc1S2` [Metopimazine-Acid, metopimazine acid], the inhibition constant Ki in data set [7] was greater than 100 nM; in data set [1], 210 nM; in data set [2] it was 370 nM. The IC50 in data set [3] was greater than 10000 nM. Moreover, in data set [6], the QTc intervals result is “no significant increases in QTc intervals”.

As for `C[C@@](Cc1ccc(O)c(O)c1)(NN)C(=O)O` [S-Carbidopa, (25)-3-(3,4-dihydroxyphenyl)-2-hydrazino-2-methylpropanoic acid], the motor dysfunction entry in data set [4] and in data set [5] (rats administered carbidopa) was “no motor dysfunction was observed” each time. Besides, the “motility index (MI), antral manometry” value in data set [4] (1 mg/kg IV 15 min prior to meal, all three channels, p=0.05) is listed as “robustly increased MI”. Moreover, the “solid gastric emptying compared to control rats” value in data set [5] (rats, initial results) is “improves solid gastric emptying”. In data set [6], the QTc intervals result is on record as “no significant increases in QTc intervals”.

As for `CN(CCOc1ccc(NS(C)(=O)=O)cc1)CCc1ccc(NS(C)(=O)=O)cc1` [dofetilide], in data set [6] (0.3 mg/kg oral gavage), the “incidence of ECG abnormalities” value is “increases the incidence of premature ventricular contractions, T-wave abnormalities, and right bundle branch block”. Moreover, the QTc intervals result in data set [6] is listed as “QTc intervals are increased”.

For `Cl.NCCc1ccc(O)c(O)c1` [dopamine hydrochloride, Dopamine hydrochloride], the “motility index (MI), antral manometry” value in data set [4] (50 mg/canine IV immediately before meal, all channels, p=0.06) is reported as “decreased MI”.
